Experimental data reported in US5242945A, “Tetronic and thiotetronic acid derivatives as phospholipase A2 inhibitors” (American Home Products Corporation, priority 1991, dated 1993).

Test system: lipoxygenase and/or cyclooxygenase pathways of arachidonic acid metabolism
Test: in vivo murine zymosan peritonitis assay
Design: species or system mouse (CD-1)
Settings: 100 mg/kg p.o.; negative values denote potentiation
Experimental: The compounds of the invention are evaluated for their ability to inhibit the lipoxygenase and/or cyclooxygenase pathways of arachidonic acid metabolism in the in vivo murine zymosan peritonitis assay.
Male CD-1 mice (8 weeks old) are placed in plastic boxes in groups of six. Animals are injected with 1 mL i.p. of either 1% zymosan in pyrogen free 0.9% saline or saline (unstimulated control). Compounds are dosed orally 1 hour prior to zymosan injection. Twenty minutes after zymosan injection, the mice are asphyxiated by CO2 inhalation and the peritoneal cavity is lavaged with 2 mL ice cold Hanks Balanced Salt Solution (HBSS) without CaCl2, MgSO4. 7H2 O and MgCl2.6H2 O. Peritoneal lavage fluid from each mouse is removed by syringe and placed in 5 mL plastic test tubes put on ice and volume is noted. Preparation of samples for evaluation by ELISA is as follows: Samples are centrifuged at 800 xg for 15 minutes; 1 mL of the supernatant is added to 8 mL ice cold methanol and kept at -70° C. overnight to precipitate protein; and samples are then centrifuged at 800 xg for 15 minutes, followed by a drying procedure in a Savant speed vac concentrator. The samples are reconstituted with 1 mL ice cold ELISA buffer and stored at -70° C. until assayed. The assay for eicosanoids (LTC4 and 6-keto-PGF1α) is performed according to conventional ELISA procedures.
Compounds to be tested orally are suspended in 0.5% Tween 80. Compounds to be tested intraperitoneally are suspended in 0.5% methylcellulose in 0.9% saline.
The total metabolite level in lavage fluid/mouse is calculated and the significance is determined by a one-way analysis of variance with LSD comparisons to control (p≤0.05). Drug effects are expressed as a percent change from control values.

CCCCCCCCCC(=O)C1=C(O)COC1=O [Example 1, 4-Hydroxy-3-(1-oxodecyl)-2(5H)-furanone]
% Inhibition 6-keto-PGF: -58% | % Inhibition LTC4: -58%
